Source: US20100204258A1, “METHODS AND COMPOSITIONS FOR MODULATING INSULIN SECRETION AND GLUCOSE METABOLISM” (The Trustees of Columbia University in the City of New York, priority 2007, published 2010)
“Also recorded” adds a separate entry of the source.

Columns and labels:
Lewis rats [1] = assay: IPGTT with TBZ, emetine and Compound 6 (FIG. 12); assay type: in vivo, rat; details: single dose 2-3 mg/kg body weight; for area under the curve from IPGTT: separate experiments
Method: Experimental animals. All animal studies were conducted as described in Example 1. […] Rats received injections of vehicle alone (10% DMSO in saline) or reserpine (in saline). Animals recovered fully before receiving IPGTT. Blood glucose, insulin, glucagon and intraperitoneal glucose tolerance tests measurements. […] The fasting blood glucose (BG) levels of the rats were measured using an Accu-Check blood glucose monitoring system (Roche Diagnostics, Sommerville, N.J.). Intraperitoneal glucose tolerance tests (IPGTT) were performed in 6 hour fasting un-anaesthetized animals. Briefly, after baseline BG measurements, animals received an intraperitoneal (i.p.) injection of 1 gram glucose/kilogram body weight. To minimize stress during the procedure, rats were handled by the same operator during acclimatization and later during weighing and IPGTT. Blood samples (approximately 30 μl) were collected at baseline and then again 15, 30, 45, 60, 90, and 120 minutes following i.p. glucose. BG concentrations were measured immediately on these samples and the remainder processed.

human islets = assay: Glucose-stimulated insulin secretion of purified human cadaveric islets ex vivo; assay type: cell-based; details: stimulation by high concentrations of glucose
Method: Human islet tissue and glucose-stimulated insulin secretion. The islet tissue used in these studies was obtained with institutional review board approval. Pancreas digestion and islet isolation were performed using minor modifications of the Edmonton purification protocol. (Shapiro, […] al. “Islet […] in seven patients with type I diabetes mellitus using a glucocortoid-free immunosuppressive regimen.” New England Journal of Medicine 343(4):230-8, (2000)) The determination of islet cell mass, viability, and purity were also performed. Purified islets were cultured in CMRL 1066 culture media with 10% fetal bovine serum at 37° C. in humidified air (5% CO2) for 18 to 24 hours. The human islet insulin secretory response was performed according to a procedure described by the Edmonton group. (Id.) Briefly, after an overnight culture, islets were incubated with either low or high concentrations of glucose for 2 hours at 37° C. and 5% CO2. The supernatant was collected for insulin measurement. Insulin concentrations in these experiments were analyzed with a human insulin enzyme-linked immunosorbent assay (ELISA) kit (ALPCO Insulin ELISA kit, Windham, N.H.). In some experiments TBZ, DTBZ or epinephrine was added to the cultures before glucose stimulation.

Lewis rats [2] = assay: IPGTT after 2 mg/kg i.v. of VMAT2 ligands (FIG. 10); assay type: in vivo, rat; details: 2 mg/kg body weight i.v.; for blood glucose levels during IPGTT: around sixty minutes following glucose challenge; for area under the curve in the IPGTT: following glucose challenge; for blood glucose excursion during IPGTT: vs vehicle (DMSO)
Method: Experimental animals. All animal studies were conducted as described in Example 1.
Anaesthetized rats were administered TBZ, THB, butamol, reserpine, emetine, or Compound 6 at a dose of approximately 2-3 mg/kg body weight by intravenous (i.v.) injection using the penile vein. TBZ, THB, butamol, reserpine, emetine, and Compound 6 were each separately dissolved in neat sterile dimethylsulfoxide (DMSO) and diluted (always more than 10 fold) in sterile saline. Rats received injections of vehicle alone (10% DMSO in saline) or reserpine (in saline). Animals recovered fully before receiving IPGTT.
(§1) Blood glucose, insulin, glucagon and intraperitoneal glucose tolerance tests measurements. Blood samples were collected from a superficial blood vessel in the tails of the rats following 6 hours of fasting between 12:00 noon and 2:00 p.m. The fasting blood glucose (BG) levels of the rats were measured using an Accu-Check blood glucose monitoring system (Roche Diagnostics, Sommerville, N.J.). Intraperitoneal glucose tolerance tests (IPGTT) were performed in 6 hour fasting un-anaesthetized animals. Briefly, after baseline BG measurements, animals received an intraperitoneal (i.p.) injection of 1 gram glucose/kilogram body weight. To minimize stress during the procedure, rats were handled by the same operator during acclimatization and later during weighing and IPGTT. Blood samples (approximately 30 μl) were collected at baseline and then again 15, 30, 45, 60, 90, and 120 minutes following i.p. glucose. BG concentrations were measured immediately on these samples and the remainder processed.

Lewis rats [3] = assay: Intraperitoneal glucose tolerance test (IPGTT) in normal Lewis rats after a single i.v. dose; assay type: in vivo, rat; details: 25 μg/gbm, single concentration; data not shown
Method: Experimental animals. All animal studies were reviewed and approved by the Institutional Animal Care and Use Committee (IACUC) at Columbia University's Medical School. All experiments were performed in accordance with the IACUC approved procedures. Normal male Lewis rats (100-400 grams) were obtained from Taconic (Taconic Inc., Germantown, N.Y.) and were housed under conditions of controlled humidity (55±5%), temperature (23±1° C.), and lighting (light on: 06.00-18.00 hours) with free access to standard laboratory rat chow and water. Rats were handled daily to minimize nonspecific stress for more than 7 days before the experiments began. In most experiments, it was necessary to measure blood glucose in fasting animals. For these groups, food was removed at the beginning of the light cycle, 6 hours before glucose levels were measured. Diabetes mellitus was induced by intraperitoneal injection of streptozotocin (Sigma Chemical Co., St. Louis, Mo.) (25 to 50 mg/kg) to animals (100 to 150 grams) that had been fasted 4 hours to enhance the effectiveness of STZ treatment.
The STZ solution was prepared fresh by dissolving it in 0.1 M citrate buffer (pH 5.5) and terminally sterile filtered. Control Lewis age and weight matched rats received a 0.5 ml/kg citrate vehicle alone via intraperitoneal injection. Sixty minutes prior to intraperitoneal glucose tolerance testing (IPGTT), anesthesia of male Lewis rats was induced with isoflurane (3-4% in oxygen) and maintained with 1-2% isoflurane in oxygen. Anaesthetized rats were administered TBZ at the indicated dose by intravenous (i.v.) injection using the penile vein. TBZ was dissolved in neat sterile dimethylsulfoxide (DMSO) and diluted (always more than 10 fold) in sterile saline. Rats received injections of vehicle alone (10% DMSO in saline) or reserpine (in saline). Animals recovered fully before receiving IPGTT.
as §1, with “30,” for “30, 45,”, “glucose administration.” for “glucose.”
Plasma was immediately separated by centrifugation at 3000×g for 15 minutes and then stored at −20° C. until analysis. Insulin and glucagon concentration measurements in rat plasma were performed by ELISA as per the manufacturer's instructions using kits from Linco Research Inc. (St. Charles, Mo.) and Alpco Diagnostics (Salem, N.H.), respectively. To validate the test, saline injections were performed by the same method. […] The area under the IPGTT glucose concentration×time curve (AUCIPGTT) was calculated by the trapezoidal rule. The area under the insulin or glucagon concentration×time curve (AUC INS or AUC GCG) was calculated in a similar manner.

| Structure (SMILES) | blood glucose levels during IPGTT (Lewis rats [2]) | area under the curve in the IPGTT (Lewis rats [2]) | blood glucose excursion during IPGTT (Lewis rats [2]) | other results |
| --- | --- | --- | --- | --- |
| COc1cc2c(cc1OC)C1CC(N)C(CC(C)C)CN1CC2 (stereo not drawn) [Compound 6, 3-isobutyl-9,10-dimethoxy-2,3,4,6,7,11b-hexahydro-1H-pyrido[2,1-a]isoquinolin-2-amine] | – | – | – | blood glucose excursion during IPGTT (Lewis rats [1]): consistently reduced the blood glucose excursion; area under the curve from IPGTT (Lewis rats [1]): depress the area under the curve; also recorded: consistently suppressed the area under the curve |
| COc1cc2c(cc1OC)[C@H]1C[C@@H](O)[C@H](CC(C)C)CN1CC2 [DTBZ, dihydrotetrabenazine] | – | – | – | insulin secreted by human islets in culture (human islets): enhances glucose-stimulated insulin secretion; also recorded: significantly enhanced |
| COc1ccc2c(c1OC)CN1CCc3cc4c(cc3C1C2)OCO4 (stereo not drawn) [THB, tetrahydroberberine] | returned to control or near normal levels | smaller area under the curve | reduced the blood glucose excursion | – |
| CC(C)(C)NCC(O)c1ccc(O)c(CO)c1 (stereo not drawn) [butamol] | returned to control or near normal levels | smaller area under the curve | does not reduce the blood glucose excursion; also recorded: did not reduce the blood glucose excursion | – |
| CC[C@H]1CN2CCc3cc(OC)c(OC)cc3[C@@H]2C[C@@H]1C[C@H]1NCCc2cc(OC)c(OC)cc21 [emetine] | returned to control or near normal levels | smaller area under the curve | reduced the blood glucose excursion | blood glucose excursion during IPGTT (Lewis rats [1]): consistently reduced the blood glucose excursion; area under the curve from IPGTT (Lewis rats [1]): consistently suppressed the area under the curve; area under the curve from IPGTT (Lewis rats [1]; listed as emitine): depress the area under the curve |
| CNC[C@H](O)c1ccc(O)c(O)c1 [epinephrine, L-epinephrine bitartrate] | – | – | – | insulin secreted by human islets in culture (human islets): inhibited secretion of insulin |
| COC(=O)[C@H]1[C@H]2C[C@@H]3c4[nH]c5cc(OC)ccc5c4CCN3C[C@H]2C[C@@H](OC(=O)c2cc(OC)c(OC)c(OC)c2)[C@@H]1OC [reserpine] | returned to control or near normal levels | smaller area under the curve | reduced the blood glucose excursion | AUC IPGTT relative to untreated controls (Lewis rats [3]): larger AUC IPGTT; blood glucose in IPGTT (Lewis rats [3]): persistent hyperglycemia |
